Reference: PubChem BioAssay AID1963434 (Molecular Pharmacology Branch, DTP, NCI, 2024)

Tested on: 755483-174-R-J1-PDC complex spheroid growth, percent test/control
Experiment: Anticancer human tumor 755483-174-R-J1-PDC patient-derived rhabdomyosarcoma cell line growth inhibition [Asc]
Details: for IC50: curve of first compound; for viability, T/C: stronger effect = lower value
Method in brief: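 Tumor cells were grown as complex spheroids with human endothelial cells (HUVEC) and human mesenchymal stem cells as stroma. Agents were tested alone and in combination, in half-log steps down from the clinical Cmax, or from 10 microM where Cmax was unknown.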

[1] = second compound 0.1 µM, first compound 0.0316 µM
[2] = second compound 0.1 µM, first compound 0.1 µM
[3] = second compound 0.316 µM, first compound 0.0316 µM
[4] = second compound 0.316 µM, first compound 0.1 µM
[5] = second compound 1 µM, first compound 0.0316 µM
[6] = second compound 1 µM, first compound 0.1 µM
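Note: spheroids exposed to compounds for seven days before readout.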

SMILES: NC1CCC(NC2CC2c2ccccc2)CC1 (stereo not given) + Cc1c(S(C)(=O)=O)c(-c2cc(F)cc(N3CCN(c4ccc(NS(=O)(=O)c5ccc(NC(CCN6CCC(C(=O)OCCCP(=O)(O)O)CC6)CSc6ccccc6)c(S(=O)(=O)C(F)(F)F)c5)cc4)CC3)c2)c(-c2ccc(Cl)cc2)n1C(C)C
- IC50 (second compound 0.1 µM): < 0.316 nM
- IC50 (second compound 0.316 µM): < 0.316 nM
- IC50 (second compound 1 µM): < 0.316 nM
- IC50 (second compound 3.16 µM): < 0.316 nM
- IC50 (second compound 10 µM): < 0.316 nM
- viability, T/C (second compound 0.1 µM, first compound 0.000316 µM): 36.7%
- viability, T/C (second compound 0.1 µM, first compound 0.001 µM): 31.1%
- viability, T/C (second compound 0.1 µM, first compound 0.00316 µM): 37.3%
- viability, T/C (second compound 0.1 µM, first compound 0.01 µM): 37.3%
- viability, T/C [1]: 33.7%
- viability, T/C [2]: 37%
- viability, T/C (second compound 0.316 µM, first compound 0.000316 µM): 39.7%
- viability, T/C (second compound 0.316 µM, first compound 0.001 µM): 42.1%
- viability, T/C (second compound 0.316 µM, first compound 0.00316 µM): 31.7%
- viability, T/C (second compound 0.316 µM, first compound 0.01 µM): 26.7%
- viability, T/C [3]: 35.9%
- viability, T/C [4]: 30.5%
- viability, T/C (second compound 1 µM, first compound 0.000316 µM): 27.6%
- viability, T/C (second compound 1 µM, first compound 0.001 µM): 19.3%
- viability, T/C (second compound 1 µM, first compound 0.00316 µM): 31.9%
- viability, T/C (second compound 1 µM, first compound 0.01 µM): 31.5%
- viability, T/C [5]: 31.1%
- viability, T/C [6]: 39.5%
- viability, T/C (second compound 3.16 µM, first compound 0.000316 µM): 25.2%
- viability, T/C (second compound 3.16 µM, first compound 0.001 µM): 32.8%
- viability, T/C (second compound 3.16 µM, first compound 0.00316 µM): 22.7%
- viability, T/C (second compound 3.16 µM, first compound 0.01 µM): 35.9%
- viability, T/C (second compound 3.16 µM, first compound 0.0316 µM): 24.9%
- viability, T/C (second compound 3.16 µM, first compound 0.1 µM): 35.4%
- viability, T/C (second compound 10 µM, first compound 0.000316 µM): 20.4%
- viability, T/C (second compound 10 µM, first compound 0.001 µM): 20.4%
- viability, T/C (second compound 10 µM, first compound 0.00316 µM): 21.2%
- viability, T/C (second compound 10 µM, first compound 0.01 µM): 20.6%
- viability, T/C (second compound 10 µM, first compound 0.0316 µM): 24.5%
- viability, T/C (second compound 10 µM, first compound 0.1 µM): 27.6%

SMILES: C=CC(=O)N1CCN(c2nc(=O)n(-c3c(C)ccnc3C(C)C)c3nc(-c4c(O)cccc4F)c(F)cc23)C(C)C1 (stereo not given) + CNC(C)C(=O)NC1CN(S(=O)(=O)c2cccc(S(=O)(=O)N3CCC4CCC(C(=O)NC(c5ccccc5)c5ccccc5)N4C(=O)C(NC(=O)C(C)NC)C3)c2)CCC2CCC(C(=O)NC(c3ccccc3)c3ccccc3)N2C1=O
- IC50 (second compound 0.01 µM): > 10000 nM
- IC50 (second compound 0.0316 µM): > 10000 nM
- IC50 (second compound 0.1 µM): 31.6 nM
- IC50 (second compound 0.316 µM): < 31.6 nM
- IC50 (second compound 1 µM): < 31.6 nM
- viability, T/C (second compound 0.01 µM, first compound 0.0316 µM): 80.2%
- viability, T/C (second compound 0.01 µM, first compound 0.1 µM): 89.3%
- viability, T/C (second compound 0.01 µM, first compound 0.316 µM): 75.2%
- viability, T/C (second compound 0.01 µM, first compound 1 µM): 61.4%
- viability, T/C (second compound 0.01 µM, first compound 3.16 µM): 80.5%
- viability, T/C (second compound 0.01 µM, first compound 10 µM): 63%
- viability, T/C (second compound 0.0316 µM, first compound 0.0316 µM): 51.8%
- viability, T/C (second compound 0.0316 µM, first compound 0.1 µM): 77.5%
- viability, T/C (second compound 0.0316 µM, first compound 0.316 µM): 61.4%
- viability, T/C (second compound 0.0316 µM, first compound 1 µM): 56.6%
- viability, T/C (second compound 0.0316 µM, first compound 3.16 µM): 75.1%
- viability, T/C (second compound 0.0316 µM, first compound 10 µM): 37.7%
- viability, T/C [1]: 53.4%
- viability, T/C [2]: 54.7%
- viability, T/C (second compound 0.1 µM, first compound 0.316 µM): 44.6%
- viability, T/C (second compound 0.1 µM, first compound 1 µM): 59.2%
- viability, T/C (second compound 0.1 µM, first compound 3.16 µM): 69.8%
- viability, T/C (second compound 0.1 µM, first compound 10 µM): 51.1%
- viability, T/C [3]: 38.4%
- viability, T/C [4]: 36.2%
- viability, T/C (second compound 0.316 µM, first compound 0.316 µM): 44.4%
- viability, T/C (second compound 0.316 µM, first compound 1 µM): 61.1%
- viability, T/C (second compound 0.316 µM, first compound 3.16 µM): 46.2%
- viability, T/C (second compound 0.316 µM, first compound 10 µM): 43.9%
- viability, T/C [5]: 32.4%
- viability, T/C [6]: 28.9%
- viability, T/C (second compound 1 µM, first compound 0.316 µM): 33.6%
- viability, T/C (second compound 1 µM, first compound 1 µM): 35.5%
- viability, T/C (second compound 1 µM, first compound 3.16 µM): 39.9%
- viability, T/C (second compound 1 µM, first compound 10 µM): 36%
